Key:
K-562 = test: Cell proliferation modulatory activity, K-562; assay type: cell-based; conditions: Homo sapiens, K562; Table 45; read-out: K-562 IC50
[1] = system: MiaPaca human pancreatic carcinoma cells; test: Cell-proliferation assay using Alamar Blue dye; assay type: cell-based; conditions: MIA PaCa-2, Table 45
Experimental: (§1) A representative cell-proliferation assay protocol using Alamar Blue dye (stored at 4° C., use 20 ul per well) is described hereafter.
(§2) • a. Split and trypsinize cells. • b. Count cells using hemocytometer. • c. Plate 4,000-5,000 cells per well in 100 μl of medium and seed into a 96-well plate according to the following plate layout. Add cell culture medium only to wells B10 to B12. Wells B1 to B9 have cells but no compound added.
(§3) • d. Add 100 μl of 2× drug dilution to each well in a concentration shown in the plate layout above. At the same time, add 100 μl of media into the control wells (wells B10 to B12). Total volume is 200 μl/well. • e. Incubate four (4) days at 37° C., 5% CO2 in a humidified incubator. • f. Add 20 μl Alamar Blue reagent to each well. • g. Incubate for four (4) hours at 37° C., 5% CO2 in a humidified incubator. • h. Record fluorescence at an excitation wavelength of 544 nm and emission wavelength of 590 nm using a microplate reader.
(§4) In the assays, cells are cultured with a test compound for approximately four days, the dye then is added to the cells and fluorescence of […] dye is detected after approximately four hours. Different types of cells can be utilized in the assays (e.g., HCT-116 human colorectal carcinoma cells, PC-3 human prostatic cancer cells and MiaPaca human pancreatic carcinoma cells). Anti-proliferative effects of representative compounds are provided hereafter

recombinant human PIM1 = recombinant human PIM1 (Homo sapiens (Human), UniProt P11309); test: PIM-1 kinase activity in cell-free in vitro assay; assay type: biochemical; conditions: Table 45
Chain of recombinant human PIM1 (P11309 whole entry): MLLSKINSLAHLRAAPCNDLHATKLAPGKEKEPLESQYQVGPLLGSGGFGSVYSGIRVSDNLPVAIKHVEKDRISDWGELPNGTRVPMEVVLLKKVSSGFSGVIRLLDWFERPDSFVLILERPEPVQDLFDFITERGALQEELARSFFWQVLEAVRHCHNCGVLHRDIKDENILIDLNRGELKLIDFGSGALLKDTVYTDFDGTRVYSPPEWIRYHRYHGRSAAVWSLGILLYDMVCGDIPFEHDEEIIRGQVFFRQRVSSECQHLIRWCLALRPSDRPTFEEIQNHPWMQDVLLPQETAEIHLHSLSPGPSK

MDAMB231 [2] = test: MDAMB231 IC50; assay type: cell-based; conditions: Homo sapiens, MDA-MB-231; Table 45
PIM2 = PIM2 (Homo sapiens (Human), UniProt Q9P1W9); test: PIM2 IC50; assay type: biochemical; conditions: Table 45
Chain of PIM2 (Q9P1W9 whole entry): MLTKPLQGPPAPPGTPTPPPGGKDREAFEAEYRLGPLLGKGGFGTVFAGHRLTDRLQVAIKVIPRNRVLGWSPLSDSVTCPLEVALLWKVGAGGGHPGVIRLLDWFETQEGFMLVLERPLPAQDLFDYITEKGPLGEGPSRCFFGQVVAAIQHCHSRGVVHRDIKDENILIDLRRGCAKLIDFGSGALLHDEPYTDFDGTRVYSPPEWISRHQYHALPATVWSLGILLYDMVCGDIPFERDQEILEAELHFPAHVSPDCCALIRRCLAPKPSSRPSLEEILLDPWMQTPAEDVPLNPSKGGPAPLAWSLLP

MV-4-11 = test: Cell proliferation modulatory activity, MV-4-11; assay type: cell-based; conditions: Homo sapiens, MV4-11; Table 45; read-out: MV-4-11 IC50
MDAMB231 [3] = test: Cell-proliferation assay using Alamar Blue dye; assay type: cell-based; conditions: Homo sapiens, MDA-MB-231
Experimental: as §1
96-Well Plate Setup and Compound Treatment
as §2, §3, §4

phosphoBAD ser 112 = phosphoBAD ser 112 IC50; assay type: cell-based; conditions: read-out: phosphoBAD ser 112 IC50; Table 45

IC50 (K-562) [nM] | IC50 [1] [nM] | IC50 (recombinant human PIM1) [nM] | IC50 (MDAMB231 [2]) [nM] | IC50 (PIM2) [nM] | IC50 (MV-4-11) [nM] | IC50 (MDAMB231 [3]) [µM] | IC50 (phosphoBAD ser 112) [nM] | SMILES
< 500 | < 5000 | < 100 | > 10000 | < 5000 | < 1000 | – | – | CN(c1ccc(Cl)cc1)c1nc2c(-c3nc[nH]n3)cccc2c2cnccc12
– | – | – | – | – | – | > 50 | – | O=C(O)c1ccc2c(c1)nc(N1CCOCC1)c1nc(NC3CC3)ncc12 [drawing 1060]
– | – | – | – | – | – | 9.66 | – | CC1CCCCN1CCCNc1ncc2c(n1)c(Nc1ccc(F)c(Cl)c1)nc1cc(C(=O)O)ccc12 (stereo not shown) [drawing 1062]
> 10000 | < 500 | < 100 | > 10000 | < 500 | < 100 | – | < 5000 | Cc1cc(Nc2nc3c(-c4nnc[nH]4)cccc3c3cnccc23)ccc1F
> 10000 | < 500 | < 500 | > 10000 | < 1000 | < 100 | – | < 500 | OCCNc1nc2c(-c3nnc[nH]3)cccc2c2cnccc12
– | – | – | – | – | – | > 50 | – | O=C(O)c1ccc2c(c1)nc(NCc1ccccc1)c1nc(NC3CC3)ncc12 [drawing 1059]
< 5000 | < 10000 | < 100 | > 10000 | < 500 | < 500 | – | < 5000 | COc1cc(Nc2nc3c(-c4nc[nH]n4)cccc3c3cnccc23)ccc1F
> 10000 | < 5000 | < 100 | < 1000 | < 500 | < 100 | – | < 5000 | Fc1ccc(Nc2nc3c(-c4nc[nH]n4)cccc3c3cnccc23)cc1F
< 5000 | < 1000 | < 100 | > 10000 | < 500 | < 100 | – | < 100 | CCOc1ccc(Nc2nc3c(-c4nnc[nH]4)cccc3c3cnccc23)cc1
– | – | – | – | – | – | > 50 | – | CCOc1ncc2c(n1)c(NC1CC1)nc1cc(C(=O)O)ccc12 [drawing 1048]
< 5000 | < 5000 | < 100 | < 5000 | < 500 | < 100 | – | < 1000 | Fc1ccc(Nc2nc3c(-c4nnc[nH]4)cccc3c3cnccc23)cc1Cl
< 500 | > 10000 | < 100 | > 10000 | < 500 | < 500 | – | < 5000 | Clc1ccc(Nc2nc3c(-c4nc[nH]n4)cccc3c3cnccc23)cc1
< 5000 | < 1000 | < 100 | < 1000 | < 100 | < 100 | – | < 1000 | Fc1ccc(Cl)cc1Nc1nc2c(-c3nnc[nH]3)cccc2c2cnccc12
< 5000 | – | < 100 | < 5000 | < 1000 | < 100 | – | < 100 | COc1ccccc1Nc1nc2c(-c3nnc[nH]3)cccc2c2cnccc12
< 10000 | < 5000 | < 100 | < 10000 | < 500 | < 100 | – | < 100 | COCCNc1nc2c(-c3nc[nH]n3)cccc2c2cnccc12
> 10000 | > 10000 | < 100 | > 10000 | < 500 | < 500 | – | < 1000 | NS(=O)(=O)c1cccc(Nc2nc3c(-c4nc[nH]n4)cccc3c3cnccc23)c1
< 500 | > 10000 | < 100 | > 10000 | < 500 | < 500 | – | < 5000 | COc1cccc(CNc2nc3c(-c4nc[nH]n4)cccc3c3cnccc23)c1
< 5000 | < 5000 | < 100 | < 5000 | < 100 | < 100 | – | < 100 | Fc1ccc(Nc2nc3c(-c4nc[nH]n4)cccc3c3cnccc23)c(F)c1
< 1000 | < 1000 | < 100 | < 5000 | < 100 | < 500 | – | < 1000 | Clc1cccc(Nc2nc3c(-c4nnc[nH]4)cccc3c3cnccc23)c1

IC50 (K-562) [nM] | IC50 [1] [nM] | IC50 (recombinant human PIM1) [nM] | IC50 (MDAMB231 [2]) [nM] | IC50 (PIM2) [nM] | IC50 (MV-4-11) [nM] | IC50 (MDAMB231 [3]) [µM] | IC50 (phosphoBAD ser 112) [nM] | SMILES
< 5000 | < 500 | < 100 | < 1000 | > 1100 | < 100 | – | < 500 | Fc1cc(Cl)cc(Nc2nc3c(-c4nnc[nH]4)cccc3c3cnccc23)c1
< 5000 | < 1000 | < 100 | > 10000 | < 1000 | < 100 | – | < 100 | c1ccc(Nc2nc3c(-c4nnc[nH]4)cccc3c3cnccc23)cc1
< 500 | < 5000 | < 100 | > 10000 | < 100 | < 100 | – | < 100 | Cc1cc(F)ccc1Nc1nc2c(-c3nnc[nH]3)cccc2c2cnccc12
< 5000 | – | < 100 | > 10000 | < 1000 | < 100 | – | < 5000 | CN(c1ccccc1Cl)c1nc2c(-c3nnc[nH]3)cccc2c2cnccc12
< 500 | < 1000 | < 100 | < 5000 | < 100 | < 100 | – | < 100 | Fc1cccc(F)c1Nc1nc2c(-c3nnc[nH]3)cccc2c2cnccc12
> 10000 | > 10000 | < 100 | > 10000 | < 100 | < 500 | – | < 100 | FC(F)(F)Oc1ccccc1Nc1nc2c(-c3nnc[nH]3)cccc2c2cnccc12
< 5000 | < 1000 | < 100 | < 1000 | < 1000 | < 500 | – | < 100 | COc1cccc(Nc2nc3c(-c4nnc[nH]4)cccc3c3cnccc23)c1
> 10000 | > 10000 | < 500 | > 10000 | – | < 100 | – | < 100 | COCCOc1cccc(Nc2nc3c(-c4nnc[nH]4)cccc3c3cnccc23)c1
> 10000 | > 10000 | < 100 | < 10000 | < 500 | < 500 | – | < 1000 | c1ccc(CCNc2nc3c(-c4nc[nH]n4)cccc3c3cnccc23)cc1
< 1000 | < 1000 | < 500 | < 1000 | – | < 120 | – | < 100 | NC(=O)c1cccc2c1nc(Nc1cccc(F)c1)c1ccncc12
< 100 | < 1000 | < 100 | < 1000 | < 100 | < 100 | – | < 100 | c1cc(-c2nc[nH]n2)c2nc(NC3CC3)c3ccncc3c2c1
> 10000 | > 10000 | < 100 | > 10000 | < 500 | > 10000 | – | – | Clc1cccc(Nc2nc3c(-c4nc[nH]n4)cccc3c3ccncc23)c1
> 10000 | < 1000 | < 500 | < 10000 | < 1000 | < 100 | – | < 500 | COCCOc1ccc(Nc2nc3c(-c4nnc[nH]4)cccc3c3cnccc23)cc1
< 5000 | < 1000 | < 100 | > 30000 | < 500 | < 100 | – | < 100 | NC(=O)c1cccc2c1nc(Nc1ccc(F)cc1)c1ccncc12
> 10000 | < 5000 | < 100 | < 5000 | < 500 | < 500 | – | < 500 | Fc1ccc(Nc2nc3c(-c4nnc[nH]4)cccc3c3cnccc23)cc1
< 5000 | < 500 | < 100 | < 500 | < 100 | < 100 | – | < 100 | C#Cc1cccc(Nc2nc3c(-c4nnc[nH]4)cccc3c3cnccc23)c1
< 500 | < 1000 | < 100 | < 10000 | – | < 100 | – | < 5000 | NC(=O)c1cccc2c1nc(Nc1cccc(Cl)c1)c1ccncc12 [drawing 2246]
< 5000 | < 1000 | < 100 | > 10000 | < 500 | < 500 | – | < 1000 | Fc1cc(F)cc(Nc2nc3c(-c4nnc[nH]4)cccc3c3cnccc23)c1
< 500 | < 5000 | < 500 | > 10000 | < 1000 | < 500 | – | < 5000 | FC(F)(F)Oc1cccc(Nc2nc3c(-c4nnc[nH]4)cccc3c3cnccc23)c1
